Assay results reported in patent US12564583B2, “Small molecules against cereblon to enhance effector T cell function” (H. LEE MOFFITT CANCER CENTER AND RESEARCH INSTITUTE, INC., priority 2016, dated 2026).

Columns and labels:
IL-2 = IL-2 relative to DMSO; assay type: cell-based
[1] = Viability relative to DMSO; assay type: cell-based; set-up: concentration or dose not given beside the values
[2] = biological target: thalidomide binding domain (TBD) of cereblon (Homo sapiens, UniProt Q96SW2); assay: Cereblon binding (DSF, FP/FI); details: for inhibition at 200 µM: read-out: Cereblon Binding (≥50% inhibition at 200 μM)
Chain of thalidomide binding domain (TBD) of cereblon (Q96SW2 318-426 limits assumed): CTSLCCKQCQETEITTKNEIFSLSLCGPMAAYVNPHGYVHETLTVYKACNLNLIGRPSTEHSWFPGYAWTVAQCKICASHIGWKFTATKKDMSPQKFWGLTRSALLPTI
Procedure: Several libraries are available for screening inhibitors. Virtual analysis was formulated and then theoretical design of chemical test kit and virtual screen of test kit were carried out. Physical binding studies were also completed for the initial compounds using DSF and FP assays after they are fully tested. TEST KITs that represent the compounds identified from each of the available chemical libraries based on virtual chemical structures were also made.

| SMILES | IL-2 (%) (Relative to DMSO) (IL-2) | viability [1] [%] | inhibition at 200 µM [2] [%] | Cereblon Binding (≥50% inhibition at 200 μM) [2] |
| --- | --- | --- | --- | --- |
| Cc1nc2cccc(N)c2c(=O)n1C1CCC(=O)NC1=O (stereo not shown) | 283.4 | 84.4 | > 50 |  |
| CNc1ccccc1C(=O)NCCn1ccc(=O)[nH]c1=O | 158.7 | 97 | > 50 |  |
| O=C1NC(=O)c2ccccc21 | 110.8 | 92.4 |  | No |
| O=C1CCC(NS(=O)(=O)c2cccc([N+](=O)[O-])c2)C(=O)N1 (stereo not shown) | 143.7 | 80 |  | Yes* |
| CCNc1cccc(S(=O)(=O)NC2CCC(=O)NC2=O)c1 (stereo not shown) | 124.4 | 100 |  | Yes* |
| CNc1ccccc1C(=O)NCCN1CCC(=O)NC1=O | 167.5 | 101 |  | Yes* |
| COC(=O)c1ccccc1NC(=O)[C@H](CC(=O)NC1CCC(=O)NC1=O)NC(=O)OC(C)(C)C (stereo partly shown) | 25.0 | 85.6 |  | Yes* |
| Nc1cc(Cl)ccc1C(=O)NCCN1CCC(=O)NC1=O | 14.1 | 78.7 |  | Yes* |
| O=C1CCC(N2CCc3ccc([N+](=O)[O-])cc3C2)C(=O)N1 (stereo not shown) | 23.0 | 84.2 |  | Yes* |
| O=C1CCC(N2CCc3ccc(O)cc3C2)C(=O)N1 (stereo not shown) | 32.2 | 102 |  | Yes* |
| O=C1CCC(N2CCCC(c3ccccc3)C2)C(=O)N1 (stereo not shown) | 45.3 | 92.1 |  | Yes* |
| O=C1CCC(NCCNC(=O)c2ccccc2)C(=O)N1 (stereo not shown) | 46.7 | 68.2 |  | Yes* |
| O=C1CCC(=O)N1 | 199.7 | 75.3 | > 50 |  |
| Cn1cncc1C(=O)NC1CCC(=O)NC1=O (stereo not shown) | 148.0 | 95.3 | > 50 |  |
| O=C1CCC(NCc2ccco2)C(=O)N1 (stereo not shown) | 136.9 | 95.9 | > 50 |  |
| O=C1CCC(NCc2ccccn2)C(=O)N1 (stereo not shown) | 7.8 | 84.9 | > 50 |  |
| O=C1CCC(NCc2ccc(N3CCOCC3)cc2)C(=O)N1 (stereo not shown) | 14.9 | 94.5 | > 50 |  |
| Cc1ccc(C(=O)NC2CCC(=O)NC2=O)o1 (stereo not shown) | 48.0 | 84.7 | > 50 |  |
| C=CCCCCCCCCC(=O)NC1CCC(=O)NC1=O (stereo not shown) | 15.6 | 82.3 | > 50 |  |
| Nc1cccc(S(=O)(=O)NC2CCC(=O)NC2=O)c1 (stereo not shown) | 127.0 | 99.7 | > 50 |  |
| O=C1CCC(NC(=O)CCNS(=O)(=O)c2c(F)cccc2F)C(=O)N1 (stereo not shown) | 120.1 | 99.4 | > 50 |  |

| SMILES | IL-2 (%) (Relative to DMSO) (IL-2) | viability [1] [%] | inhibition at 200 µM [2] [%] | Cereblon Binding (≥50% inhibition at 200 μM) [2] |
| --- | --- | --- | --- | --- |
| O=C(NCCn1ccc(=O)[nH]c1=O)c1ccccc1 | 124.5 | 84.2 | > 50 |  |
| O=C1CCC(NC(=O)CCNS(=O)(=O)c2ccccc2)C(=O)N1 (stereo not shown) | 32.7 | 77.2 | > 50 |  |
| O=C1CCC(NC(=O)c2ccccc2NC(=O)CCl)C(=O)N1 (stereo not shown) | 40.3 | 69.9 | > 50 |  |
| O=c1ccn(CCNS(=O)(=O)Cc2ccccc2)c(=O)[nH]1 | 138.2 | 76.7 | > 50 |  |
| Nc1ccc(Cl)cc1C(=O)NCCN1CCC(=O)NC1=O | 20.6 | 78.8 | > 50 |  |
| O=C1CCN(CCNC(=O)c2ccccc2)C(=O)N1 | 47.1 | 84.9 | > 50 |  |
| CCN(Cc1ccccc1)C1CCC(=O)NC1=O (stereo not shown) | 32.1 | 99.1 | > 50 |  |
| O=C1CCC(NCc2ccccc2)C(=O)N1 (stereo not shown) | 40.4 | 98 | > 50 |  |
| O=C1CCC(N2CCC(c3ccccc3)CC2)C(=O)N1 (stereo not shown) | 41.5 | 100 | > 50 |  |
| CN(Cc1ccc2c(c1)OCO2)C1CCC(=O)NC1=O (stereo not shown) | 43 | 106 | > 50 |  |
| CC(=O)N[C@H](C(=O)NC1CCC(=O)NC1=O)C(C)C (stereo partly shown) | 126.4 | 79.4 |  | DSF (check) FI (borderline) |
| NC(=O)[C@H](Cc1ccccc1)NC(=O)[C@@H]1CCC(=O)N1 | 39.8 | 74.7 |  | No |
| Nc1cccc2c1C(=O)N(C1CC(=O)NC1=O)C2=O (stereo not shown) | 193.8 | 97 |  | No |
| CN1C(=O)CCC(N2Cc3c(N)cccc3C2=O)C1=O.Cl (stereo not shown) | 199.2 | 106 |  | No |
| O=C1c2ccccc2C(=O)N1c1cc[nH]c(=O)c1 | 123.3 | 95.3 |  | No |
| COc1ccc(C2=NNC(=O)CC2)cc1OC | 12.4 | 100 |  | No |
| O=C1CC[C@@H](C(=O)Nc2ccccc2)N1 | 0.5 | 106 |  | No |
| O=C1CN(N2C(=O)c3cccc([N+](=O)[O-])c3C2=O)C(=O)N1 | 50.0 | 96.4 |  | No |
| O=C1CC(N2C(=O)c3cccc([N+](=O)[O-])c3C2=O)C(=O)N1 (stereo not shown) | 133.4 | 81.9 |  | No |
| Nc1cccc2c1CN([C@H]1CC(=O)NC1=O)C2=O | 124.9 |  |  | No |
| Nc1ccccc1S(=O)(=O)NC1CCC(=O)NC1=O (stereo not shown) | 54.7 | 99.1 |  | Yes* |

| SMILES | IL-2 (%) (Relative to DMSO) (IL-2) | viability [1] [%] | inhibition at 200 µM [2] [%] | Cereblon Binding (≥50% inhibition at 200 μM) [2] |
| --- | --- | --- | --- | --- |
| CC(C)[C@H](NC(=O)c1ccccc1)C(=O)NC1CCC(=O)NC1=O (stereo partly shown) | 84.5 | 99.1 |  | Yes* |
| O=C1CCC(NS(=O)(=O)c2ccc([N+](=O)[O-])cc2)C(=O)N1 (stereo not shown) | 56.3 | 93.4 |  | Yes* |
| O=C1CCC(N2CCc3ccccc3C2)C(=O)N1 (stereo not shown) | 105.4 | 99.5 |  | Yes* |
| O=C1CCC(N2CCc3ccccc32)C(=O)N1 (stereo not shown) |  | 98.7 |  |  |
| O=C1CCC(N2Cc3ccccc3C2)C(=O)N1 (stereo not shown) | 69.0 | 84.8 |  | Yes* |
| O=c1ccn(CCCc2ccccc2)c(=O)[nH]1 | 99.7 | 93.1 |  | Yes* |
| O=c1ccn(Cc2ccccc2)c(=O)[nH]1 | 88.2 | 79.5 |  | Yes* |
| O=c1ccn(CCNS(=O)(=O)c2ccccc2)c(=O)[nH]1 | 90.8 | 77.8 |  | Yes* |
| O=c1ccn(CCCCc2ccccc2)c(=O)[nH]1 | 101.8 | 86.4 |  | Yes* |
| O=c1ccn(CCCc2ccc(Cl)cc2)c(=O)[nH]1 | 93.9 | 90.7 |  | Yes* |
| CNc1ccccc1C(=O)NCCn1cc(F)c(=O)[nH]c1=O | 75.1 | 79.2 |  | Yes* |
| Nc1ccccc1C(=O)NCCn1cc(F)c(=O)[nH]c1=O | 109.0 | 89.7 |  | Yes* |
| COc1ccc2c(c1)CCN(C1CCC(=O)NC1=O)C2 (stereo not shown) | 79.0 | 74.4 |  | Yes* |
| O=C1CCC(NS(=O)(=O)c2ccc3c(c2)OCCCO3)C(=O)N1 (stereo not shown) | 61.6 | 73.6 |  | Yes* |
| Nc1cc(Cl)ccc1C(=O)NCCn1ccc(=O)[nH]c1=O | 67.3 | 70.4 |  | Yes* |
| Nc1ccc(Cl)cc1C(=O)NCCn1ccc(=O)[nH]c1=O | 51.2 | 74.8 |  | Yes* |
| Cc1ccc(N)c(C(=O)NCCn2ccc(=O)[nH]c2=O)c1 | 83.7 | 75.2 |  | Yes* |
| Nc1cccc(F)c1C(=O)NCCn1ccc(=O)[nH]c1=O | 107.0 | 95 |  | Yes* |
| O=C1CCC(N2CCc3ccc(Cl)cc3C2)C(=O)N1 (stereo not shown) | 69.9 | 93.2 |  | Yes* |
| Nc1ccc2c(c1)CCN(C1CCC(=O)NC1=O)C2 (stereo not shown) | 54.6 | 95.8 |  | Yes* |
| Nc1cccc2c1CN(C1CCC(=O)NC1=O)C2=O (stereo not shown) [drawing 75] |  | 99.9 |  |  |
